According to paper PMC8073907, “Peptide targeting of lysophosphatidylinositol-sensing GPR55 for osteoclastogenesis tuning” (Cell Communication and Signaling : CCS, 2021):

What was measured:
ssGPR55-K80A = assay: GPR55-internalisation assay, K80A mutant (FACS); format: cell-based, human; conditions: ssGPR55-K80A, HeLa; 10 µM soybean LPI, 15 min; three independent experiments
Excerpt: The construct of haemagglutinin (HA)-tagged human GPR55 in pcDNA3 (HA-GPR55) was a gift from Prof. K. Mackie, Indiana University, Bloomington, IN, USA [39], while the construct ss-3 × HA-GPR55 in pcDNA3.1 (ssGPR55) with a triple HA tag at the N-terminus and an optimised signal sequence (ss, derived from amino acids 1–33 of the human growth hormone: […]) for efficient surface expression was from Prof. A. Irving, Dundee University, UK [40]. For both constructs, mutations were introduced by site-directed mutagenesis using QuickChange kits (Stratagene, La Jolla, CA, USA), according to the manufacturer instructions. The primers for the K80A mutation were 5′-[…]-3′ and 5′-[…]-3′ (Tm, 70.6 °C), and for Q87A were 5′-[…]-3′ and 5′-[…]-3′ (Tm, 73.1 °C).
HeLa cells were plated at 1.5 × 10^5 cells/well in six-well plates in their growth medium without antibiotics. […]
For the GPR55-internalisation assay, after stimulation, the HeLa cells were washed twice with cold HBSS^++, stained while adhered with the monoclonal anti-HA antibody (1:1000) in PBS plus 3% BSA for 1 h on ice, washed three times with cold PBS, incubated with the Alexa488-tagged anti-mouse antibody (1:800) in PBS plus 3% BSA for 45 min on ice. […] The collected cells were centrifuged at 300×g, suspended in PBS plus 3% BSA, and analysed by FACS.

endogenous GPR55 (HeLa) = assay: LPI-induced ERK/p38 phosphorylation in shCTRL-HeLa clones (Western blot); format: cell-based, human; conditions: 10 µM soybean LPI, 10 min, mean of three independent experiments
Description: For stable interference of GPR55, HeLa cells were plated at 1.5 × 10^5 cells/well in six-well plates in growth medium without antibiotics, and 24 h later, the cells were transfected with 1.7 µg/well OmicsLink short hairpin (sh)RNA expression clone CSHCTR001-CU6 (shCTRL) or clone HSH022476-3-CU6 (shGPR55) from GeneCopoeia (Rockville, MD, USA), using Lipofectamine 2000, according the manufacturer instructions. Forty-eight hours after transfection, HeLa clones stably expressing shRNAs were selected in growth medium containing 0.3 µg/mL puromycin. The efficiency of interference was monitored by real-time PCR using the primers listed in the Additional file 1: Table S1. HPRT1 was followed as a housekeeping gene.
Twenty-four hours after transfection (HEK293T, HeLa cells or clones) or 72 h after interference (RAW264.7 cells), the cells were washed twice with HBSS^++, serum deprived (HEK293T cells for 4 h in DMEM; HeLa cells and clones for 2 h in MEM plus 2 mM glutamine and 25 mM HEPES; RAW264.7 cells for 2 h in DMEM), washed once again with HBSS^++, incubated in stimulation buffer (HBSS^++ with 10 mM HEPES, 0.4% faf-BSA for HEK293T cells; HBSS^++ with 25 mM HEPES and 0.01% faf-BSA for HeLa cells, clones, and RAW264.7 cells) in the absence or presence of stimuli, at 37 °C for the indicated times. Incubations were terminated by washing the cells twice with cold HBSS^++, and the analyses were performed as reported below.
Cell lysates were obtained by scraping the cells into phospho-lysis buffer: 50 mM Tris–HCl, pH 7.5, 100 mM NaCl, 5 mM EDTA, 1% Triton X-100, 50 mM NaF, 40 mM β-glycerophosphate, 200 µM sodium orthovanadate, plus protease and phosphatase inhibitors (Roche). Following gentle homogenisation by 20 passages through a 26-gauge needle, the lysates were centrifuged at 10,000×g for 5 min at 4 °C, and the supernatants were collected.
Protein lysates were subjected to SDS-PAGE, and after electrophoresis, the proteins were transferred to a nitrocellulose membrane (PerkinElmer Life Science, Boston, MA, USA). For immunoblotting, the membranes were blocked with 5% non-fat milk in TBS (10 mM Tris–HCl, pH 7.4, 10 mM NaCl) plus 0.1% Tween-20 (T-TBS) for 30 min at room temperature, and incubated with primary antibodies in T-TBS plus 3% BSA for 2 h at room temperature, or overnight at 4 °C. The membranes were washed twice in T-TBS for 7 min, and then incubated with secondary antibodies conjugated to horseradish peroxidase (1:5,000) (Calbiochem, San Diego, CA, USA) in T-TBS with 5% non-fat milk for 30 min at room temperature. The membranes were then washed twice with T-TBS and once with TBS for 5 min, and the signals were detected by ECL (Amersham Pharmacia, Piscataway, NJ, USA). The rabbit anti-phospho AKT (Ser473), anti-phospho p38 (Thr180/Tyr182), anti-phospho p42/44 (Thr202/Tyr204), anti-p38 (all at dilution 1:1000) were from Cell Signaling Technology (Danvers, MA, USA). The rabbit anti-AKT (B-1), and anti-p42/44 (ERK1; K-23) were from Santa Cruz Biotechnology.

lysophosphatidylinositol [LPI]
change of cell-surface level of receptor (ssGPR55-K80A): not changed
ERK2 phosphorylation upon LPI stimulation (endogenous GPR55 (HeLa)): 7.8 -fold basal levels
p38 phosphorylation upon LPI stimulation (endogenous GPR55 (HeLa)): 2.5 -fold basal levels
